Assays:
L-363 cells = test: Biological Assay C: antiproliferative activity on L-363 cells (CellTiter-Glo); type: cell-based, human; conditions: Homo sapiens, L-363, 72 h, 72 hr treatment; averaged values
Method in brief: (§1)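 CellTiter-Glo luminescence after 72 h exposure, blank (cells read at compound addition) subtracted, growth expressed as % of untreated control; duplicate wells. Suspension cells in RPMI/10% FCS, 2,000–6,000 cells/well, 0.3% DMSO.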

[1] = system: P-IKKα levels in L363 cells; test: Biological Assay B: effect of compounds on P-IKKα levels in L363 cells; type: cell-based; conditions: Homo sapiens, L-363, averaged values, read-out: IKKα Cellular IC50
Experimental: Effect of Compounds on P-IKKα Levels in L363 Cells
All compounds tested were dissolved in DMSO and further dilutions were made in culture medium. Final DMSO concentration was 1% (v/v) in cell assays. The human L363 cells (ATCC) were cultured in RPMI 1640 medium supplemented with GlutaMax and 10% fetal calf serum (PAA). Cells were routinely maintained at densities of 0.2×10^6 cells per ml-1×10^6 cells per ml at 37° C. in a humidified 5% CO2 atmosphere. Cells were passaged twice a week splitting back to obtain the low density. Cells were seeded in 96 well plates (Nunc 167008) at 2×10^6 per ml media in a volume of 75 μl per well plus 25 μl 1 μg/ml recombinant human B-cell activating factor BAFF/B1YS/TNFSF13B. Seeded cells were incubated at 37° C. in a humidified 5% CO2 atmosphere for 24 hr. Drugs and/or solvents were added (20 μl) to a final volume of 120 μl. Following 2 hr treatment plates were removed from the incubator and cell lysis was achieved by the addition of 30 μl 5× lysis buffer followed by shaking on a plate shaker at 4° C. for 10 min. At the end of this incubation lysed cells were centrifuged at 800×g for 20 min at 4° C. and the lysate was assessed for P-IKKα levels by sandwich immuno-assay carried out in anti-rabbit antibody coated Mesoscale plates. Within an experiment, the results for each treatment were the mean of 2 replicate wells. For initial screening purposes, compounds were tested using an 8 point dilution curve (serial 1:3 dilutions). For each experiment, controls (containing MG132 and BAFF but no test drug) and a blank incubation (containing MG132 and BAFF and 10 μM ADS125117, a test concentration known to give full inhibition) were run in parallel. The blank incubation value was subtracted from all control and sample values. To determine the IC50 a sigmoidal curve was fitted to the plot of % inhibition of control P-IKKα levels versus Log10 compound concentration.

[2] = target: T1, Recombinant Human NF-kappaB-Inducing Kinase (NIK/MAP3K14) (Homo sapiens, UniProt Q99558); test: Biological Assay A2: inhibition of auto-phosphorylation of recombinant human NIK/MAP3K14 (AlphaScreen); type: biochemical; conditions: auto-phosphorylation; averaged over all measurements on all batches; read-out: αscreen IC50
T1 sequence (Q99558 whole entry): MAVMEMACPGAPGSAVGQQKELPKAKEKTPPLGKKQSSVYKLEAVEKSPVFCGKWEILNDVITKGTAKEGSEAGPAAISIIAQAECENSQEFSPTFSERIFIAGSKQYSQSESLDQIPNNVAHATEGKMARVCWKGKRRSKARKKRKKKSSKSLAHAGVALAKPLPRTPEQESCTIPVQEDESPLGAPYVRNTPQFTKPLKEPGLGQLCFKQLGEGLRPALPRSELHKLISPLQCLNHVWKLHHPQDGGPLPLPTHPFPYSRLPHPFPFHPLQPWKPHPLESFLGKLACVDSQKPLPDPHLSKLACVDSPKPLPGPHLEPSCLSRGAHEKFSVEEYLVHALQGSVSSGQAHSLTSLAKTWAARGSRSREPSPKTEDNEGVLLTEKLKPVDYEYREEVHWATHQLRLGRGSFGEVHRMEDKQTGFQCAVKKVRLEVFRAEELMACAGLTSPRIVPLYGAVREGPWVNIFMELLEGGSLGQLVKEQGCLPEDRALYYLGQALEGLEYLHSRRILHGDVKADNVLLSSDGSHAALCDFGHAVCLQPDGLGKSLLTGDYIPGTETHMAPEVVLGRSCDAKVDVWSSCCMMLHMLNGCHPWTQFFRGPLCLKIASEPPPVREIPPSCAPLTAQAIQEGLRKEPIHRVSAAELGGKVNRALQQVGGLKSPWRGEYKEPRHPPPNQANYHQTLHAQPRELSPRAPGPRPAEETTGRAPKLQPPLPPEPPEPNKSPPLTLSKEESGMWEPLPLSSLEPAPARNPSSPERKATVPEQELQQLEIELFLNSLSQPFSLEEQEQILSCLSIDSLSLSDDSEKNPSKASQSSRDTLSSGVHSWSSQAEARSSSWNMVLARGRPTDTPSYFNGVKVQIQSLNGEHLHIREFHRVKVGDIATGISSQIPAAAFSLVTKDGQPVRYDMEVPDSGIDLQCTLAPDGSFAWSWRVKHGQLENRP
Method in brief: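 GST-tagged NIK/MAP3K14 (0.2 nM) auto-phosphorylation with 25 microM ATP in 50 mM Tris pH 7.5, 5 mM MgCl2, 1% DMSO; 1 h at 25° C. Phospho-IKK Ser176/180 detected by AlphaScreen; blank-subtracted % inhibition fitted sigmoidally vs log concentration for IC50.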

LP-1 cells = test: Biological Assay C: antiproliferative activity on LP-1 cells (CellTiter-Glo); type: cell-based, human; conditions: Homo sapiens, LP-1, 72 h, 72 hr treatment; averaged values
Method in brief: as §1

[3] = target: T1, Recombinant Human NF-kappaB-Inducing Kinase (NIK/MAP3K14); test: Biological Assay A: inhibition of recombinant human NIK/MAP3K14 activity (MBP phosphorylation, Mesoscale); type: biochemical; conditions: averaged over all measurements on all batches; read-out: Biochemical (MSD MBP) IC50
Method in brief: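 10 nM NIK with 25 μM ATP on MBP-coated plates in Tris pH 7.5 buffer with MgCl2, DTT and Na3VO4 and 1% DMSO, for 1 h at 25° C. Phospho-MBP was detected by anti-phospho-MBP and Sulfotag electrochemiluminescence; after blank subtraction, IC50 came from a sigmoidal fit of % inhibition.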

JJN-3 cells = test: Biological Assay C: antiproliferative activity on JJN-3 cells (CellTiter-Glo); type: cell-based, human; conditions: Homo sapiens, JJN-3, 72 h, 72 hr treatment; averaged values
Method in brief: as §1

Row | SMILES | EC50 (L-363 cells) | IC50 [1] | IC50 [2] | EC50 (LP-1 cells) | IC50 [3] | EC50 (JJN-3 cells)
1 | COCCn1cc(-c2ccnc(N)n2)c2cc(C#CC(C)(O)c3nccs3)ncc21 (stereo not drawn) [Compound 26] | 11000 nM | 120 nM | 19 nM | 15000 nM | 49 nM | 5600 nM
2 | CC(C)(O)Cn1cc(-c2ccnc(N)n2)c2cc(C#CC3(O)CCC3)ncc21 [Compound 42] | 1500 nM | 84 nM | 24 nM | 16000 nM | 5.7 nM | 330 nM
3 | CC(C)(O)C#Cc1cc2c(-c3ccnc(N)n3)cn(CCS(C)(=O)=O)c2cn1 [Compound 67] | 2400 nM | 880 nM | 30 nM | > 10000 nM | 57 nM | 2400 nM
4 | CC(C)(O)C#Cc1cc2c(-c3ccnc(N)n3)cn(CCCN)c2cn1 [Compound 11] | 130 nM | 300 nM | 27 nM | 600 nM | 8 nM | 41 nM
5 | COCCn1cc(-c2nc(N)ncc2Cl)c2cc(C#CC(C)(C)O)ncc21 [Compound 25] | 63 nM | 11 nM | 20 nM | 190 nM | 9.9 nM | 110 nM
6 | CC(C)(O)Cn1cc(-c2ccnc(N)n2)c2cc(C#CC(C)(O)CC3CC3)ncc21 (stereo not drawn) [Compound 53] | > 10000 nM | 370 nM | 57 nM | > 10000 nM | 45 nM | 450 nM
7 | CC(C)(O)Cn1cc(-c2nc(N)ncc2Cl)c2cc(C#CC(C)(O)c3nccs3)ncc21 (stereo not drawn) [Compound 23] | 9900 nM | 89 nM | 9 nM | 7700 nM | 30 nM | 2500 nM
8 | COCCNC(=O)c1[nH]c2cnc(C#CC(C)(C)O)cc2c1-c1ccnc(N)n1 [Compound 52] | 3200 nM | 99 nM | 33 nM | 30000 nM | 29 nM | 1200 nM
9 | CC(C)(O)C#Cc1cc2c(-c3nc(N)ncc3Cl)cn(CC(C)(C)O)c2cn1 [Compound 24] | 96 nM | 13 nM | 15 nM | 760 nM | 8.7 nM | 140 nM
10 | CC(C)(O)C#Cc1cc2c(-c3ccnc(N)n3)cn(CCO)c2cn1 [Compound 12] | 1200 nM | 150 nM | 3 nM | 12000 nM | 7.4 nM | 1300 nM
11 | CC(C)(O)C#Cc1cc2c(-c3ccnc(N)n3)cn(C(C)(C)CO)c2cn1 [Compound 66] | 270 nM | 240 nM | 52 nM | 7600 nM | 5.8 nM | 250 nM
12 | CC(C)(O)C#Cc1cc2c(-c3ccnc(N)n3)c[nH]c2cn1 [Compound 1] | 180 nM | 93 nM | 4 nM | 3200 nM | 6.9 nM | 200 nM
13 | CC(C)(O)C#Cc1cc2c(-c3nc(N)ncc3C#N)cn(CC(C)(C)O)c2cn1 [Compound 60] | 150 nM | 19 nM | 11 nM | 14000 nM | 8.4 nM | 170 nM
14 | CC(C)(O)Cn1cc(-c2ccnc(N)n2)c2cc(C#CC(C)(O)C(F)(F)F)ncc21 (stereo not drawn) [Compound 111] | 1300 nM | 290 nM | 190 nM | 7500 nM | 220 nM | 640 nM
15 | CN(C)C(=O)CCn1cc(-c2ccnc(N)n2)c2cc(C#CC(C)(C)O)ncc21 [Compound 50] | 7500 nM | 650 nM | 230 nM | > 10000 nM | 140 nM | 2700 nM
16 | CCC(O)(C#Cc1cc2c(-c3ccnc(N)n3)cn(CCOC)c2cn1)CC [Compound 35] | 3000 nM | 470 nM | 150 nM | 3800 nM | 120 nM | 2000 nM
17 | CC(C)n1cc(-c2nc(N)ncc2Cl)c2cc(C#CC(C)(O)c3nccs3)ncc21 (stereo not drawn) [Compound 17] | 810 nM | 17 nM | 6 nM | 8000 nM | 4.9 nM | 460 nM
18 | COCCn1cc(-c2nc(N)ncc2F)c2cc(C#CC(C)(C)O)ncc21 [Compound 54] | 59 nM | 21 nM | 17 nM | 330 nM | 27 nM | 89 nM
19 | CC(C)(O)C#Cc1cc2c(-c3ccnc(N)n3)cn(CC#N)c2cn1 [Compound 56] | 840 nM | 140 nM | 18 nM | 14000 nM | 25 nM | 840 nM
20 | CNc1nccc(-c2cn(CC(C)(C)O)c3cnc(C#CC(C)(C)O)cc23)n1 [Compound 68] | 960 nM | 360 nM | 47 nM | 16000 nM | 130 nM | 1500 nM
21 | CC(C)(O)Cn1cc(-c2ccnc(N)n2)c2cc(C#CC3(O)CCOC3)ncc21 (stereo not drawn) [Compound 29] | > 10000 nM | 6300 nM | 110 nM | > 10000 nM | 140 nM | > 10000 nM
22 | CC(C)(O)Cn1cc(-c2nc(N)ncc2Cl)c2cc(C#CC3(O)CCCC3)ncc21 [Compound 33] | 1100 nM | 53 nM | 16 nM | 4100 nM | 4.2 nM | 150 nM
23 | Nc1nccc(-c2c[nH]c3cnc(C#CC4(O)CC4)cc23)n1 [Compound 9] | 120 nM | 37 nM | 2 nM | 1200 nM | 1.1 nM | 74 nM
